Source: PubChem BioAssay (NCI)
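Abbreviation: GI50, concentration required for 50% inhibition of growth. Definition used: TGI = concentration required for complete inhibition of growth.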

Experiments:
Experiment in all cases: DTP human tumour cell line panel, 384-well format
[1] = test system: 786-0 renal
[2] = test system: A498 renal
[3] = test system: A549 NSCLC
[4] = test system: ACHN renal
[5] = test system: BT-549 breast
[6] = test system: CAKI-1 renal
[7] = test system: CCRF-CEM leukemia
[8] = test system: COLO 205 colon
[9] = test system: DU-145 prostate
[10] = test system: EKVX NSCLC
[11] = test system: HCC-2998 colon
[12] = test system: HCT-15 colon
[13] = test system: HL-60(TB) leukemia
[14] = test system: HOP-62 NSCLC
[15] = test system: HOP-92 NSCLC
[16] = test system: HS 578T breast
[17] = test system: HT29 colon
[18] = test system: IGROV1 ovarian
[19] = test system: K-562 leukemia
[20] = test system: KM12 colon
[21] = test system: LOX IMVI melanoma
[22] = test system: M14 melanoma
[23] = test system: MALME-3M melanoma
[24] = test system: MCF7 breast
[25] = test system: MDA-MB-231 breast
[26] = test system: MDA-MB-435 melanoma
[27] = test system: MDA-MB-468 breast
[28] = test system: MOLT-4 leukemia
[29] = test system: NCI-H226 lung
[30] = test system: NCI-H23 lung
[31] = test system: NCI-H322M lung
[32] = test system: NCI-H460 NSCLC
[33] = test system: NCI-H522 lung
[34] = test system: NCI/ADR-RES ovarian
[35] = test system: OVCAR-3 ovarian
[36] = test system: OVCAR-4 ovarian
[37] = test system: OVCAR-5 ovarian
[38] = test system: OVCAR-8 ovarian
[39] = test system: PC-3 prostate
[40] = test system: RPMI-8226 leukemia
[41] = test system: RXF 393 renal
[42] = test system: SF-268 CNS
[43] = test system: SF-295 CNS
[44] = test system: SF-539 CNS
[45] = test system: SK-MEL-28 melanoma
[46] = test system: SK-MEL-5 melanoma
[47] = test system: SK-OV-3 ovarian
[48] = test system: SN12C renal
[49] = test system: SNB-19 CNS
[50] = test system: SNB-75 CNS
[51] = test system: SR leukemia
[52] = test system: SW-620 colon
[53] = test system: T-47D breast
[54] = test system: TK-10 renal
[55] = test system: UACC-257 melanoma
[56] = test system: UACC-62 melanoma
[57] = test system: UO-31 renal

Q: Which GI50 [1] does the source give for `C=CC(=O)N1CCC(c2ccc(C(N)=O)c(-c3ccc(Oc4ccccc4)cc3)n2)CC1` here?
A: 29.2 µM

Q: And the TGI [1]?
A: > 100 µM

Q: What about the GI50 [2] of the same molecule?
A: 21.3 µM

Q: What about the TGI [2] of the same molecule?
A: 69.9 µM

Q: What about the GI50 [3] of the same molecule?
A: 34.8 µM

Q: What about the TGI [3] of the same molecule?
A: > 100 µM

Q: And the GI50 [4]?
A: 32.4 µM

Q: And the TGI [4]?
A: > 100 µM

Q: What about the GI50 [5] of the same molecule?
A: 17.9 µM

Q: What about the TGI [5] of the same molecule?
A: 41.8 µM

Q: What about the GI50 [6] of the same molecule?
A: 23.5 µM

Q: What about the TGI [6] of the same molecule?
A: > 100 µM

Q: And the GI50 [7]?
A: 17.4 µM

Q: What about the TGI [7] of the same molecule?
A: 34.2 µM

Q: What about the GI50 [8] of the same molecule?
A: 89.8 µM

Q: And the TGI [8]?
A: > 100 µM

Q: And the GI50 [9]?
A: 24.7 µM

Q: What about the TGI [9] of the same molecule?
A: 79.9 µM

Q: And the GI50 [10]?
A: 22.6 µM

Q: And the TGI [10]?
A: 84.1 µM

Q: And the GI50 [11]?
A: 29.5 µM

Q: What about the TGI [11] of the same molecule?
A: 90.3 µM

Q: What about the GI50 [12] of the same molecule?
A: 30.6 µM

Q: What about the TGI [12] of the same molecule?
A: > 100 µM

Q: What about the GI50 [13] of the same molecule?
A: 15 µM

Q: What about the TGI [13] of the same molecule?
A: 28.3 µM

Q: What about the GI50 [14] of the same molecule?
A: 25.4 µM

Q: And the TGI [14]?
A: 83.7 µM

Q: And the GI50 [15]?
A: 20 µM

Q: And the TGI [15]?
A: 91 µM

Q: What about the GI50 [16] of the same molecule?
A: 21.1 µM

Q: And the TGI [16]?
A: 58.9 µM

Q: What about the GI50 [17] of the same molecule?
A: 59.6 µM

Q: What about the TGI [17] of the same molecule?
A: > 100 µM

Q: What about the GI50 [18] of the same molecule?
A: 21.3 µM

Q: And the TGI [18]?
A: 56 µM

Q: And the GI50 [19]?
A: 28.8 µM

Q: What about the TGI [19] of the same molecule?
A: > 100 µM

Q: What about the GI50 [20] of the same molecule?
A: 37.3 µM

Q: What about the TGI [20] of the same molecule?
A: > 100 µM

Q: And the GI50 [21]?
A: 25.1 µM

Q: What about the TGI [21] of the same molecule?
A: 62.9 µM

Q: And the GI50 [22]?
A: 33.9 µM

Q: What about the TGI [22] of the same molecule?
A: > 100 µM

Q: What about the GI50 [23] of the same molecule?
A: 29.7 µM

Q: What about the TGI [23] of the same molecule?
A: 83.4 µM

Q: What about the GI50 [24] of the same molecule?
A: 28.6 µM

Q: And the TGI [24]?
A: > 100 µM

Q: What about the GI50 [25] of the same molecule?
A: 30.8 µM

Q: And the TGI [25]?
A: > 100 µM

Q: And the GI50 [26]?
A: 38.7 µM

Q: What about the TGI [26] of the same molecule?
A: > 100 µM

Q: What about the GI50 [27] of the same molecule?
A: 3.99 µM

Q: And the TGI [27]?
A: 10.2 µM

Q: And the GI50 [28]?
A: 12.7 µM

Q: And the TGI [28]?
A: 25.7 µM

Q: What about the GI50 [29] of the same molecule?
A: 22.7 µM

Q: And the TGI [29]?
A: 72.4 µM

Q: And the GI50 [30]?
A: 28.3 µM

Q: What about the TGI [30] of the same molecule?
A: > 100 µM

Q: What about the GI50 [31] of the same molecule?
A: 25.3 µM

Q: And the TGI [31]?
A: > 100 µM

Q: And the GI50 [32]?
A: 27.4 µM

Q: What about the TGI [32] of the same molecule?
A: 71.5 µM

Q: What about the GI50 [33] of the same molecule?
A: 12.2 µM

Q: And the TGI [33]?
A: 30.7 µM

Q: And the GI50 [34]?
A: 16.6 µM

Q: What about the TGI [34] of the same molecule?
A: 37.2 µM

Q: What about the GI50 [35] of the same molecule?
A: 27.1 µM

Q: And the TGI [35]?
A: 66.5 µM

Q: What about the GI50 [36] of the same molecule?
A: 25.7 µM

Q: What about the TGI [36] of the same molecule?
A: 69.7 µM

Q: And the GI50 [37]?
A: > 100 µM

Q: And the TGI [37]?
A: > 100 µM

Q: What about the GI50 [38] of the same molecule?
A: 23.8 µM

Q: What about the TGI [38] of the same molecule?
A: 66.1 µM

Q: And the GI50 [39]?
A: 41.2 µM

Q: What about the TGI [39] of the same molecule?
A: > 100 µM

Q: And the GI50 [40]?
A: 15.1 µM

Q: What about the TGI [40] of the same molecule?
A: 29.3 µM

Q: And the GI50 [41]?
A: 24.9 µM

Q: And the TGI [41]?
A: 73.5 µM

Q: What about the GI50 [42] of the same molecule?
A: 35.3 µM

Q: And the TGI [42]?
A: > 100 µM

Q: And the GI50 [43]?
A: 41.1 µM

Q: What about the TGI [43] of the same molecule?
A: > 100 µM

Q: And the GI50 [44]?
A: 27 µM

Q: And the TGI [44]?
A: 78.5 µM

Q: And the GI50 [45]?
A: 95.1 µM

Q: And the TGI [45]?
A: > 100 µM

Q: And the GI50 [46]?
A: 18 µM

Q: What about the TGI [46] of the same molecule?
A: 35.8 µM

Q: What about the GI50 [47] of the same molecule?
A: 26.9 µM

Q: And the TGI [47]?
A: > 100 µM

Q: And the GI50 [48]?
A: 33.1 µM

Q: What about the TGI [48] of the same molecule?
A: > 100 µM

Q: And the GI50 [49]?
A: 39.7 µM

Q: What about the TGI [49] of the same molecule?
A: > 100 µM

Q: And the GI50 [50]?
A: 37.6 µM

Q: What about the TGI [50] of the same molecule?
A: > 100 µM

Q: What about the GI50 [51] of the same molecule?
A: 11.7 µM

Q: And the TGI [51]?
A: 26.7 µM

Q: What about the GI50 [52] of the same molecule?
A: 32.9 µM

Q: And the TGI [52]?
A: 84.9 µM

Q: What about the GI50 [53] of the same molecule?
A: 16.9 µM

Q: What about the TGI [53] of the same molecule?
A: 87.2 µM

Q: What about the GI50 [54] of the same molecule?
A: 25.2 µM

Q: What about the TGI [54] of the same molecule?
A: 81.4 µM

Q: What about the GI50 [55] of the same molecule?
A: 18.3 µM

Q: What about the TGI [55] of the same molecule?
A: 42.1 µM

Q: And the GI50 [56]?
A: 40.4 µM

Q: And the TGI [56]?
A: > 100 µM

Q: What about the GI50 [57] of the same molecule?
A: 74.1 µM

Q: What about the TGI [57] of the same molecule?
A: > 100 µM
